According to US20250074913A1, “PYRAZOLE DERIVATIVES AS STING AGONISTS” (Hoffmann-La Roche Inc., priority 2022, published 2025):

Tested on: interferon regulatory factor (IRF) pathway in THP1-Dual™ cells
Assay: THP1-Dual reporter gene assay (Agonist_THP1_EC50)
Format: cell-based
Conditions: Homo sapiens, 20-24 hrs compound treatment, Lucia luciferase (IRF) readout
From the text: This is the cellular reporter assay to evaluate compounds' agonism to interferon regulatory factor (IRF) pathway in THP1-Dual™ cells (InvivoGen, cat number thpd-nfis). THP1-Dual™ cells were derived from the human THP-1 monocyte cell line by stable integration lucia luciferase gene, a new secreted luciferase reporter gene, under the control of an ISG54 (interferon-stimulated gene) minimal promoter in conjunction with five interferon (IFN)-stimulated response elements. As a result, THP1-Dual™ cells allow the study of the IRF pathway, by assessing the activity of Lucia luciferase. Lucia luciferase protein is readily measurable in the cell culture supernatant when using QUANTI-Luc™ (InvivoGen, cat: rep-qlcg-500).
After 20-24 hrs compound treatment in THP1-Dual cells, the compounds' agonism to IRF pathway and cell toxicity were tested by measuring luminescence and OD 450 on an Envision plate reader.
On the day of experiment, 30 μL of test medium (RPMI 1640, 2 mM L-glutamine, 25 mM HEPES, […] heat-inactivated fetal bovine serum) was dispensed in a white 384-well plate (Grenier, cat: 781098) containing the serially diluted compounds (final 1% DMSO) transferred by the Echo550 machine. Then 30 μL of cell suspension (˜33,000 cells, 1.1×10^6 cells/mL) per well was added immediately by thermo multidrop combi dispenser for incubation 20-24 h at 37° C., […]. At the end of the incubation, 10 μL of cellular supernatant was transferred to proxiplate 384-plus plate for IRF detection, and then 10 μL of QUANTI-Luc™ Gold solution was added to the plate that proceeded with the measurement immediately. To detect cell viability, 30 μL of the CCK-8 working solution (Dojindo Molecular Technologies, cat: CK04-20) was added to the cell plate, which was Incubated for 2 hrs in the incubator to measure the absorbance at 450 nm using Envision.

**Q.** `Cc1cc2c(C(N)=O)nn(-c3nc(-c4c(O)c(C)nn4CCc4cccnc4)n[nH]3)c2cn1` [Example 47, 1-[3-[4-hydroxy-5-methyl-2-[2-(3-pyridyl)ethyl]pyrazol-3-yl]-1H-1,2,4-triazol-5-yl]-5-methyl-pyrazolo[3,4-c]pyridine-3-carboxamide] was tested. Which EC50 did it give?
**A.** 33 nM

**Q.** `Cc1cc2c(C(N)=O)nn(-c3nc(-c4c(O)c(C)nn4CCc4ccccc4)nn3C)c2cn1` [Example 48, 1-[5-[4-hydroxy-5-methyl-2-(2-phenylethyl)pyrazol-3-yl]-2-methyl-1,2,4-triazol-3-yl]-5-methyl-pyrazolo[3,4-c]pyridine-3-carboxamide] was tested. Which EC50 did it give?
**A.** 64 nM

**Q.** `CCCCn1nc(C)c(O)c1-c1nc(-n2nc(C(N)=O)c3cc(C)ncc32)n(C)n1` [Example 49, 1-[5-(2-butyl-4-hydroxy-5-methyl-pyrazol-3-yl)-2-methyl-1,2,4-triazol-3-yl]-5-methyl-pyrazolo[3,4-c]pyridine-3-carboxamide] was tested. Which EC50 did it give?
**A.** 58 nM

**Q.** For `COc1ccc(CCn2nc(C)c(O)c2-c2n[nH]c(-n3nc(C(N)=O)c4cc(C)ncc43)n2)cc1` [Example 50, 1-[3-[4-hydroxy-2-[2-(4-methoxyphenyl)ethyl]-5-methyl-pyrazol-3-yl]-1H-1,2,4-triazol-5-yl]-5-methyl-pyrazolo[3,4-c]pyridine-3-carboxamide], which EC50 is on record?
**A.** 25 nM

**Q.** `CC#CCCn1nc(C)c(O)c1-c1n[nH]c(-n2nc(C(N)=O)c3cc(C)ncc32)n1` [Example 51, 1-[3-(4-hydroxy-5-methyl-2-pent-3-ynyl-pyrazol-3-yl)-1H-1,2,4-triazol-5-yl]-5-methyl-pyrazolo[3,4-c]pyridine-3-carboxamide] was tested. Which EC50 did it give?
**A.** 34 nM

**Q.** With `COc1cccc(CCn2nc(C)c(O)c2-c2n[nH]c(-n3nc(C(N)=O)c4cc(C)ncc43)n2)c1` [Example 54, 1-[3-[4-hydroxy-2-[2-(3-methoxyphenyl)ethyl]-5-methyl-pyrazol-3-yl]-1H-1,2,4-triazol-5-yl]-5-methyl-pyrazolo[3,4-c]pyridine-3-carboxamide] as the compound, how does the EC50 read?
**A.** 31 nM

**Q.** With `Cc1cc2c(C(N)=O)nn(-c3nc(-c4c(O)c(C)nn4CCc4ccccc4F)n[nH]3)c2cn1` [Example 56, 1-[3-[2-[2-(2-fluorophenyl)ethyl]-4-hydroxy-5-methyl-pyrazol-3-yl]-1H-1,2,4-triazol-5-yl]-5-methyl-pyrazolo[3,4-c]pyridine-3-carboxamide] as the compound, how does the EC50 read?
**A.** 13 nM

**Q.** For `Cc1cn2c(C(N)=O)c(F)c(-c3nc(-c4c(O)c(C)nn4CCc4ccccc4)n[nH]3)c2cn1` [Example 57, 7-fluoro-8-[3-[4-hydroxy-5-methyl-2-(2-phenylethyl)pyrazol-3-yl]-1H-1,2,4-triazol-5-yl]-3-methyl-pyrrolo[1,2-a]pyrazine-6-carboxamide], which EC50 is on record?
**A.** 62 nM

**Q.** How did the EC50 turn out when `Cc1cc2c(C(N)=O)nn(-c3nc(-c4c(O)c(C)nn4CCc4cccc(C#N)c4)n[nH]3)c2cn1` [Example 60, 1-[3-[2-[2-(3-cyanophenyl)ethyl]-4-hydroxy-5-methyl-pyrazol-3-yl]-1H-1,2,4-triazol-5-yl]-5-methyl-pyrazolo[3,4-c]pyridine-3-carboxamide] was run?
**A.** 23 nM

**Q.** With `Cc1cc2c(C(N)=O)nn(-c3nc(-c4c(O)c(C)nn4CCc4ccc(C#N)cc4)n[nH]3)c2cn1` [Example 61, 1-[3-[2-[2-(4-cyanophenyl)ethyl]-4-hydroxy-5-methyl-pyrazol-3-yl]-1H-1,2,4-triazol-5-yl]-5-methyl-pyrazolo[3,4-c]pyridine-3-carboxamide] as the compound, how does the EC50 read?
**A.** 47 nM

**Q.** Which EC50 does the source give for `COC(=O)c1ccc(CCn2nc(C)c(O)c2-c2n[nH]c(-n3nc(C(N)=O)c4cc(C)ncc43)n2)cc1` [Example 62, Methyl 4-[2-[5-[5-(3-carbamoyl-5-methyl-pyrazolo[3,4-c]pyridin-1-yl)-1H-1,2,4-triazol-3-yl]-4-hydroxy-3-methyl-pyrazol-1-yl]ethyl]benzoate] here?
**A.** 44 nM

**Q.** Which EC50 does the source give for `Cc1cc2c(C(N)=O)nn(-c3nc(-c4c(O)c(C)nn4CC=C(F)F)n[nH]3)c2cn1` [Example 63, 1-(3-(1-(3,3-difluoroallyl)-4-hydroxy-3-methyl-1H-pyrazol-5-yl)-1H-1,2,4-triazol-5-yl)-5-methyl-1H-pyrazolo[3,4-c]pyridine-3-carboxamide] here?
**A.** 26 nM

**Q.** Which EC50 does the source give for `COCc1cccc(CCn2nc(C)c(O)c2-c2n[nH]c(-n3nc(C(N)=O)c4cc(C)ncc43)n2)c1` [Example 65, 1-[3-[4-hydroxy-2-[2-[3-(methoxymethyl)phenyl]ethyl]-5-methyl-pyrazol-3-yl]-11H-1,2,4-triazol-5-yl]-5-methyl-pyrazolo[3,4-c]pyridine-3-carboxamide] here?
**A.** 17 nM

**Q.** `Cc1cc2c(C(N)=O)nn(-c3nc(-c4c(O)c(C)nn4CCC(F)F)n[nH]3)c2cn1` [Example 66, 1-(3-(1-(3,3-difluoropropyl)-4-hydroxy-3-methyl-1H-pyrazol-5-yl)-1H-1,2,4-triazol-5-yl)-5-methyl-1H-pyrazolo[3,4-c]pyridine-3-carboxamide] was tested. Which EC50 did it give?
**A.** 27 nM

**Q.** `Cc1cc2c(C(N)=O)nn(-c3nc(-c4c(O)c(C)nn4CCc4ccc(CO)cc4)n[nH]3)c2cn1` [Example 68, 1-[3-[4-hydroxy-2-[2-[4-(hydroxymethyl)phenyl]ethyl]-5-methyl-pyrazol-3-yl]-1H-1,2,4-triazol-5-yl]-5-methyl-pyrazolo[3,4-c]pyridine-3-carboxamide] was tested. Which EC50 did it give?
**A.** 27 nM

**Q.** Which EC50 does the source give for `COc1ccc(CCn2nc(C)c(O)c2-c2n[nH]c(-c3c(F)c(C(N)=O)n4cc(C)ncc34)n2)cc1` [Example 69, 7-fluoro-8-[3-[4-hydroxy-2-[2-(4-methoxyphenyl)ethyl]-5-methyl-pyrazol-3-yl]-1H-1,2,4-triazol-5-yl]-3-methyl-pyrrolo[1,2-a]pyrazine-6-carboxamide] here?
**A.** 93 nM

**Q.** How did the EC50 turn out when `Cc1cn2c(C(N)=O)nc(-c3nc(-c4c(O)c(C)nn4CCc4ccc(CO)cc4)n[nH]3)c2cn1` [Example 71, 1-[3-[4-hydroxy-2-[2-[4-(hydroxymethyl)phenyl]ethyl]-5-methyl-pyrazol-3-yl]-1H-1,2,4-triazol-5-yl]-6-methyl-imidazo[1,5-a]pyrazine-3-carboxamide] was run?
**A.** 15 nM

**Q.** For `Cc1cn2c(C(N)=O)nc(-c3nc(-c4c(O)c(C)nn4CCc4cccnc4)n[nH]3)c2cn1` [Example 72, 1-[3-[4-hydroxy-5-methyl-2-[2-(3-pyridyl)ethyl]pyrazol-3-yl]-1H-1,2,4-triazol-5-yl]-6-methyl-imidazo[1,5-a]pyrazine-3-carboxamide], which EC50 is on record?
**A.** 15 nM

**Q.** `Cc1cn2c(C(N)=O)c(F)c(-c3nc(-c4c(O)c(C)nn4CCc4cccnc4)n[nH]3)c2cn1` [Example 73, 7-fluoro-8-[3-[4-hydroxy-5-methyl-2-[2-(3-pyridyl)ethyl]pyrazol-3-yl]-1H-1,2,4-triazol-5-yl]-3-methyl-pyrrolo[1,2-a]pyrazine-6-carboxamide] was tested. Which EC50 did it give?
**A.** 39 nM

**Q.** With `Cc1cc2c(C(N)=O)nn(-c3coc(-c4c(O)c(C)nn4CCc4cccnc4)n3)c2cn1` [Example 74, 1-(2-(4-hydroxy-3-methyl-1-(2-(pyridin-3-yl)ethyl)-1H-pyrazol-5-yl)oxazol-4-yl)-5-methyl-1H-pyrazolo[3,4-c]pyridine-3-carboxamide] as the compound, how does the EC50 read?
**A.** 170 nM

**Q.** `COc1cccc(CCn2nc(C)c(O)c2-c2nc(-n3nc(C(N)=O)c4cc(C)ncc43)co2)c1` [Example 75, 1-(2-(4-hydroxy-1-(3-methoxyphenethyl)-3-methyl-1H-pyrazol-5-yl)oxazol-4-yl)-5-methyl-1H-pyrazolo[3,4-c]pyridine-3-carboxamide] was tested. Which EC50 did it give?
**A.** 49 nM

**Q.** For `COc1ccc(CCn2nc(C)c(O)c2-c2nc(-n3nc(C(N)=O)c4cc(C)ncc43)co2)cc1` [Example 78, 1-(2-(4-hydroxy-1-(4-methoxyphenethyl)-3-methyl-1H-pyrazol-5-yl)oxazol-4-yl)-5-methyl-1H-pyrazolo[3,4-c]pyridine-3-carboxamide], which EC50 is on record?
**A.** 90 nM

**Q.** Which EC50 does the source give for `COCC#CCCn1nc(C)c(O)c1-c1n[nH]c(-n2nc(C(N)=O)c3cc(C)ncc32)n1` [Example 81, 1-[3-[4-hydroxy-2-(5-methoxypent-3-ynyl)-5-methyl-pyrazol-3-yl]-1H-1,2,4-triazol-5-yl]-5-methyl-pyrazolo[3,4-c]pyridine-3-carboxamide] here?
**A.** 65 nM

**Q.** With `CCCn1nc(C)c(O)c1-c1nc(-c2nc(C(N)=O)n3cc(C)ncc23)co1` [Example 85, 1-[2-(4-hydroxy-5-methyl-2-propyl-pyrazol-3-yl)oxazol-4-yl]-6-methyl-imidazo[1,5-a]pyrazine-3-carboxamide] as the compound, how does the EC50 read?
**A.** 49 nM

**Q.** How did the EC50 turn out when `Cc1cn2c(C(N)=O)nc(-c3nc(-c4c(O)c(C)nn4CCc4ccc(CN5CCOCC5)cc4)n[nH]3)c2cn1` [Example 87, 1-[3-[4-hydroxy-5-methyl-2-[2-[4-(morpholinomethyl)phenyl]ethyl]pyrazol-3-yl]-1H-1,2,4-triazol-5-yl]-6-methyl-imidazo[1,5-a]pyrazine-3-carboxamide] was run?
**A.** 53 nM

**Q.** Which EC50 does the source give for `Cc1cc2c(C(N)=O)nn(-c3coc(-c4c(O)c(C)nn4CCc4ccc(CN5CCOCC5)cc4)n3)c2cn1` [Example 88, 1-[2-[4-hydroxy-5-methyl-2-[2-[4-(morpholinomethyl)phenyl]ethyl]pyrazol-3-yl]oxazol-4-yl]-5-methyl-pyrazolo[3,4-c]pyridine-3-carboxamide] here?
**A.** 179 nM
